Test results taken from ChEMBL document CHEMBL1201862, “PubChem BioAssay data set” (2004).
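48-hour exposure; five concentrations; linearly interpolated endpoints. GI50 = concentration required for 50% inhibition of growth.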 Activity calls are given as the source filed them. Rule as the data show it: active = GI50 up to about 1.1 µM and inactive = higher.

Columns and labels:
Assay in all cases: DTP human tumour cell line panel, 48 h
HCT-15 = tested on: HCT-15
KM12 = tested on: KM12
MDA-MB-435 = tested on: MDA-MB-435
HOP-62 = tested on: HOP-62
A549 = tested on: A549
MDA-MB-231 = tested on: MDA-MB-231
SR = tested on: SR
PC-3 = tested on: PC-3
SF-539 = tested on: SF-539
SK-MEL-5 = tested on: SK-MEL-5
MCF7 = tested on: MCF7
HOP-92 = tested on: HOP-92
SF-268 = tested on: SF-268
OVCAR-3 = tested on: OVCAR-3
A498 = tested on: A498
HCT-116 = tested on: HCT-116
NCI-H226 = tested on: NCI-H226
UO-31 = tested on: UO-31
HCC 2998 = tested on: HCC 2998
UACC-62 = tested on: UACC-62

Compound | GI50 (HCT-15) [µM] | GI50 (KM12) | GI50 (MDA-MB-435) | GI50 (HOP-62) | GI50 (A549) | GI50 (MDA-MB-231) | GI50 (SR) | GI50 (PC-3) | GI50 (SF-539) | GI50 (SK-MEL-5) | GI50 (MCF7) | GI50 (HOP-92) | GI50 (SF-268) | GI50 (OVCAR-3) | GI50 (A498) | GI50 (HCT-116) | GI50 (NCI-H226) | GI50 (UO-31) | GI50 (HCC 2998) | GI50 (UACC-62)
CN1C(=O)C(=CNc2ccccc2[N+](=O)[O-])C(=O)N(C)C1=O | > 100 | > 100 µM (inactive) | > 100 µM (inactive) | > 100 µM (inactive) | > 100 µM (inactive) | > 100 µM (inactive) | > 100 µM (inactive) | > 100 µM (inactive) | > 100 µM (inactive) | > 100 µM (inactive) | 10 µM (inactive) | > 100 µM (inactive) | > 100 µM (inactive) | > 100 µM (inactive) | > 100 µM (inactive) | > 100 µM (inactive) | > 100 µM (inactive) | > 100 µM (inactive) | > 100 µM (inactive) | > 100 µM (inactive)
C=C(C)CNCC(=C)C.Oc1c(Cl)c(Cl)c(Cl)c(Cl)c1Cl | 20.9 | 20.4 µM (inactive) | 23.7 µM (inactive) | 22 µM (inactive) | 27.9 µM (inactive) | 15.5 µM (inactive) | 26.6 µM (inactive) | 22.8 µM (inactive) | 17.6 µM (inactive) | 16.4 µM (inactive) | 26.6 µM (inactive) | 24.4 µM (inactive) | 33.9 µM (inactive) | 11 µM (inactive) | 20.4 µM (inactive) | 16.4 µM (inactive) | 13.9 µM (inactive) | 15.7 µM (inactive) | > 100 µM (inactive) | 18.7 µM (inactive)
CC(C)C1CSC2N1C(=O)C2(OCc1ccccc1)C1CC1 (stereo not given) | > 100 | > 100 µM (inactive) | > 100 µM (inactive) | > 100 µM (inactive) | > 100 µM (inactive) | > 100 µM (inactive) | > 100 µM (inactive) | 69 µM (inactive) | > 100 µM (inactive) | > 100 µM (inactive) | > 100 µM (inactive) | > 100 µM (inactive) | > 100 µM (inactive) | > 100 µM (inactive) | 51.3 µM (inactive) | > 100 µM (inactive) | > 100 µM (inactive) | > 100 µM (inactive) | > 100 µM (inactive) | > 100 µM (inactive)
COC(=O)NC(Nc1ccc(C)cc1)(C(F)(F)F)C(F)(F)F | > 100 | > 100 µM (inactive) | > 100 µM (inactive) | > 100 µM (inactive) | > 100 µM (inactive) | > 100 µM (inactive) | 61.2 µM (inactive) | > 100 µM (inactive) | > 100 µM (inactive) | > 100 µM (inactive) | > 100 µM (inactive) | > 100 µM (inactive) | > 100 µM (inactive) | > 100 µM (inactive) | > 100 µM (inactive) | > 100 µM (inactive) | > 100 µM (inactive) | 18.3 µM (inactive) | > 100 µM (inactive) | > 100 µM (inactive)
CSCCC(NC(=O)OC(C)(C)C)C(=O)NCCNc1ccc(NCCNC(=O)C(CCSC)NC(=O)OC(C)(C)C)c2c1C(=O)c1ccccc1C2=O (stereo not given) | > 67.6 | 5.77 µM (inactive) | 2.63 µM (inactive) | 3.15 µM (inactive) | 2.84 µM (inactive) | 2.83 µM (inactive) | 2.83 µM (inactive) | 5.31 µM (inactive) | 2.71 µM (inactive) | 3.07 µM (inactive) | 6.01 µM (inactive) | 3.93 µM (inactive) | 3.37 µM (inactive) | 7.16 µM (inactive) | 4.62 µM (inactive) | 8.71 µM (inactive) | 6.76 µM (inactive) | > 100 µM (inactive) | 2.32 µM (inactive) | 3.8 µM (inactive)
CC1(C)C/N=C/C(C)(OCc2ccccc2)C(=O)NC(C)(C)C/N=C/C(C)(OCc2ccccc2)C(=O)N1 (stereo not given) | > 10 | > 10 µM (inactive) | > 10 µM (inactive) | > 10 µM (inactive) | > 10 µM (inactive) | > 10 µM (inactive) | > 10 µM (inactive) | > 10 µM (inactive) | > 10 µM (inactive) | > 10 µM (inactive) | > 10 µM (inactive) | 0.0569 µM (active) | > 10 µM (inactive) | > 10 µM (inactive) | > 10 µM (inactive) | > 10 µM (inactive) | > 10 µM (inactive) | > 10 µM (inactive) | > 10 µM (inactive) | > 10 µM (inactive)
CC(C)(C)OC(=O)NC1CC=CCC1NC(=O)OC(C)(C)C (stereo not given) | > 100 | > 100 µM (inactive) | > 100 µM (inactive) | > 100 µM (inactive) | > 100 µM (inactive) | > 100 µM (inactive) | > 100 µM (inactive) | > 100 µM (inactive) | > 100 µM (inactive) | 97.7 µM (inactive) | > 100 µM (inactive) | > 100 µM (inactive) | > 100 µM (inactive) | > 100 µM (inactive) | > 100 µM (inactive) | > 100 µM (inactive) | > 100 µM (inactive) | > 100 µM (inactive) | > 100 µM (inactive) | > 100 µM (inactive)
Cc1nc2ccccc2c(=O)n1NC(=O)c1ccc(CS)cc1 | 16.4 | 15.3 µM (inactive) | 12.9 µM (inactive) | 18.8 µM (inactive) | 7.48 µM (inactive) | 13 µM (inactive) | 2.97 µM (inactive) | 1.74 µM (inactive) | 12.9 µM (inactive) | 3.92 µM (inactive) | 5.64 µM (inactive) | 7.85 µM (inactive) | 4.06 µM (inactive) | 11.8 µM (inactive) | 11.2 µM (inactive) | 4.4 µM (inactive) | 2.84 µM (inactive) | 12.5 µM (inactive) | 18.5 µM (inactive) | 6.58 µM (inactive)
